Where two headings read alike, the source gives them in different places.
Key:
[1] = Evaluation of brain penetration properties; format: in vivo, BALB/cA mice; conditions: mouse, 0.5 hours after oral 50 mg/kg/day, BALB/cA mice; for Kp at 0.5 h: read-out: Kp value (Compound concentration in brain/plasma)
[2] = Evaluation of oral absorbability; format: in vivo, BALB/cA mice; conditions: mouse; plasma, oral 50 mg/kg/day, BALB/cA mice
Ba/F3-HER2insYVMA cells = Ba/F3-HER2insYVMA cells (Homo sapiens, UniProt P04626, DUP772-775, cells depend on it); test: Growth inhibitory activity against HER2 exon 20 insertion mutant expressing cell line; format: cell-based, mouse; conditions: 3 days, CellTiter-Glo 2.0, read-out: HER2ex20insYVMA cell growth inhibitory activity IC50 value
Sequence of Ba/F3-HER2insYVMA cells (P04626 with tags, fused parts or gaps DUP772-775): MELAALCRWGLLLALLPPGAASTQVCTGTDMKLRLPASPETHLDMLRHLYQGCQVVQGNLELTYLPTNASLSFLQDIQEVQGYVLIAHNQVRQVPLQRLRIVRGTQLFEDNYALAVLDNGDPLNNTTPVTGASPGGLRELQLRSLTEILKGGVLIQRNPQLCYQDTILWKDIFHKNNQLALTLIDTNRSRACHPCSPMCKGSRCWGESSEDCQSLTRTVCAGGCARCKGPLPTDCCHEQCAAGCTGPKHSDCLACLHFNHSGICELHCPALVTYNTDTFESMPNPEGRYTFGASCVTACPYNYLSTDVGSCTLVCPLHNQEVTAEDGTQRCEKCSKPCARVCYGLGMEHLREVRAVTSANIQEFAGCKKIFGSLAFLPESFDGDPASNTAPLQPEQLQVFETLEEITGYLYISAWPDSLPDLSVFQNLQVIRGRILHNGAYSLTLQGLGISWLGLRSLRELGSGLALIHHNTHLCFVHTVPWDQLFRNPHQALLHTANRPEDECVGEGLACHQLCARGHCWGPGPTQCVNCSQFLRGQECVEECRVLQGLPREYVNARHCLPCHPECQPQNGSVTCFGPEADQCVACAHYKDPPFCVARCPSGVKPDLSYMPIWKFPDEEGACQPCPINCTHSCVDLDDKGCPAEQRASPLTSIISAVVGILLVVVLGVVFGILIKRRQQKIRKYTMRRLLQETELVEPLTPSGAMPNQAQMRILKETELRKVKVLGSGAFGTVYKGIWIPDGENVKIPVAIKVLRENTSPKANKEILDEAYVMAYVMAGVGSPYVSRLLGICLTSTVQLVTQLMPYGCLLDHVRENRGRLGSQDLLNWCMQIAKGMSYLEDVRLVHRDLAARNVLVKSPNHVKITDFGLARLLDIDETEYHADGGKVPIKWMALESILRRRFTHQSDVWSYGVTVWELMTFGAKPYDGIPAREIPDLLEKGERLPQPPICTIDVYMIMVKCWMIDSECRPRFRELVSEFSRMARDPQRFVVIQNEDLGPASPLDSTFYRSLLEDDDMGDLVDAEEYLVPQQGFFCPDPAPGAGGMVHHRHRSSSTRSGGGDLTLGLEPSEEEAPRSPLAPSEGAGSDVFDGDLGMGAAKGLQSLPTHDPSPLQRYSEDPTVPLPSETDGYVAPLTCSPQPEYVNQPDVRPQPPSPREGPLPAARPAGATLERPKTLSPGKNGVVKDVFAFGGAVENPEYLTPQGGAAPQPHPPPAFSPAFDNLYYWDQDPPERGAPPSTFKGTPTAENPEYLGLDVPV

HER2 = molecular target: T1, HER2 (Homo sapiens, UniProt P04626); test: Inhibitory effect (in vitro) on HER2 phosphorylation activity; format: biochemical; conditions: recombinant human HER2, ATP 5 μM, 25° C. 30 minutes
T1 construct: purchased Carna Biosciences, Inc
T1 sequence (P04626 23-1255): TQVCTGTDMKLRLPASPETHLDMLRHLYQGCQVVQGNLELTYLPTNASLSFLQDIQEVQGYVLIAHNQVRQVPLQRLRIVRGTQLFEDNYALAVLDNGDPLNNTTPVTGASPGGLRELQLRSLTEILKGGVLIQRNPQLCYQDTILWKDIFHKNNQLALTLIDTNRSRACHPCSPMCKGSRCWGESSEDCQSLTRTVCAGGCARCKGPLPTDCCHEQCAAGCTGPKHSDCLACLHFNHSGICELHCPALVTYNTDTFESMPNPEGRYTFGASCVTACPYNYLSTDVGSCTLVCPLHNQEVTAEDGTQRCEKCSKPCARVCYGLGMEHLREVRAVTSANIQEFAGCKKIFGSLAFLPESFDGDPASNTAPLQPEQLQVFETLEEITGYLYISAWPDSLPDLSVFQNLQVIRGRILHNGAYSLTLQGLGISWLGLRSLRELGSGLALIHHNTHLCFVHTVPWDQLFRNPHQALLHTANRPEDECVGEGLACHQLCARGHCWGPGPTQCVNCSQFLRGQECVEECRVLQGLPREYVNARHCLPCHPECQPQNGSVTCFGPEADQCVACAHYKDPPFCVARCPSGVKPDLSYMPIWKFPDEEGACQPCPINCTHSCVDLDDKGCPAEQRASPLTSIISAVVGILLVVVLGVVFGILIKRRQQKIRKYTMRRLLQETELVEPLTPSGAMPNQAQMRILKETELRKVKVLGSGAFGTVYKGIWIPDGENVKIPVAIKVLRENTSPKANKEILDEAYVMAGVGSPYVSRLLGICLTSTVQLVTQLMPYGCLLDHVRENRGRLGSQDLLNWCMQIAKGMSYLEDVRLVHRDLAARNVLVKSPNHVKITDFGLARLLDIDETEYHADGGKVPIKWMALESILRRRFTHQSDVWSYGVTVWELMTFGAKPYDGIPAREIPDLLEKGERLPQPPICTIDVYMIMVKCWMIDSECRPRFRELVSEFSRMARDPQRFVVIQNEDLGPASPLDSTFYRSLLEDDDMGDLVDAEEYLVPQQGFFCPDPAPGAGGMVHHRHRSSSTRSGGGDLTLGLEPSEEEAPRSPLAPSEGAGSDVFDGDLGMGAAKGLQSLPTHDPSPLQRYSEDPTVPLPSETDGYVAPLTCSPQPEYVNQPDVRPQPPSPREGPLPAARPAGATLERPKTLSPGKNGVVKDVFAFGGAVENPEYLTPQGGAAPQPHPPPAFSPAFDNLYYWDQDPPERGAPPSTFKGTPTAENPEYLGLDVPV
Outline: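 Purified recombinant human HER2 phosphorylating 5-FAM-labeled ProfilerPro Peptide 22 substrate, compounds serially diluted in DMSO. Reaction stopped with EDTA at 30 mM final; unphosphorylated and phosphorylated peptides separated and detected by microchannel capillary electrophoresis.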

SK-BR-3 cells = test: Growth inhibitory activity against HER2 expressing cell line SK-BR-3; format: cell-based; conditions: Homo sapiens, SK-BR-3, 72 h; 3 days, CellTiter-Glo 2.0
Outline: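 SK-BR-3 cells in McCoy's 5a with 10% FBS, pre-cultured 1 day, then exposed to compound (final DMSO 0.2%) for 3 days at 37° C, 5% CO2. Viability by CellTiter-Glo 2.0 luminescence; growth inhibition % = (C−T)/C×100 versus untreated wells.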

NCI-N87 cells = test: Growth inhibitory activity against HER2 expressing cell line NCI-N87; format: cell-based; conditions: Homo sapiens, NCI-N87, 72 h; 3 days, CellTiter-Glo 2.0
[3] = brain, read-out: Compound concentration in brain
[4] = plasma, read-out: Compound concentration in plasma

Structure (SMILES)	concentration at 0.5 h [1, 3] [µM]	Kp at 0.5 h ([1]; brain)	concentration at 0.5 h [1, 4] [µM]	AUC(0-t) [2] [µM·h]	GI50 (Ba/F3-HER2insYVMA cells) [nM]	IC50 (HER2) [nM]	IC50 (SK-BR-3 cells) [nM]	IC50 (NCI-N87 cells) [nM]
C=CC(=O)N1C[C@H](n2c(C#CC3CC3)c(C(=O)N[C@H](C)c3ccccc3)c3c(N)ncnc32)C[C@@H]1C [Example 11, 7-((3R,5S)-1-acryloyl-5-methylpyrrolidin-3-yl)-4-amino-6-(cyclopropylethynyl)-N—((R)-1-phenylethyl)-7H-pyrrolo[2,3-d]pyrimidine-5-carboxamide]	2.7	0.23	12	31	29	3.2	6.6	9.9
C=CC(=O)N1C[C@H](n2c(C#CC(C)(C)C)c(C(=O)N[C@H](C)c3ccccc3)c3c(N)ncnc32)C[C@@H]1C [Example 12, 7-((3R,5S)-1-acryloyl-5-methylpyrrolidin-3-yl)-4-amino-6-(3,3-dimethylbut-1-yn-1-yl)-N—((R)-1-phenylethyl)-7H-pyrrolo[2,3-d]pyrimidine-5-carboxamide]	3.2	0.29	11	36	43	3.4	17	15
C=CC(=O)N1C[C@H](n2c(C#CC(C)(C)OC)c(C(=O)N[C@H](C)c3ccccc3)c3c(N)ncnc32)C[C@@H]1C [Example 13, 7-((3R,5S)-1-acryloyl-5-methylpyrrolidin-3-yl)-4-amino-6-(3-methoxy-3-methylbut-1-yn-1-yl)-N—((R)-1-phenylethyl)-7H-pyrrolo[2,3-d]pyrimidine-5-carboxamide]	2.8	0.22	13	18	23	5.2	14	11.7
C=CC(=O)N1C[C@H](n2c(C#CCC)c(C(=O)N[C@H](C)c3ccccc3)c3c(N)ncnc32)C[C@@H]1C [Example 14, 7-((3R,5S)-1-acryloyl-5-methylpyrrolidin-3-yl)-4-amino-6-(but-1-yn-1-yl)-N—((R)-1-phenylethyl)-7H-pyrrolo[2,3-d]pyrimidine-5-carboxamide]	2.1	0.21	9.9	27	27	2.2	8.1	9.1

These reach a lower GI50 (Ba/F3-HER2insYVMA cells). Values come first.

concentration at 0.5 h [1, 3] [µM]	Kp at 0.5 h ([1]; brain)	concentration at 0.5 h [1, 4] [µM]	AUC(0-t) [2] [µM·h]	GI50 (Ba/F3-HER2insYVMA cells) [nM]	IC50 (HER2) [nM]	IC50 (SK-BR-3 cells) [nM]	Structure (SMILES)	IC50 (NCI-N87 cells) [nM]
4.4	0.35	12	15	9.7	3.3	1.4	C=CC(=O)N1C[C@H](n2c(C#CC)c(C(=O)N[C@H](C)c3ccccc3)c3c(N)ncnc32)C[C@@H]1CC [Example 16, 7-((3R,5S)-1-acryloyl-5-ethylpyrrolidin-3-yl)-4-amino-N—((R)-1-phenylethyl)-6-(prop-1-yn-1-yl)-7H-pyrrolo[2,3-d]pyrimidine-5-carboxamide]	0.9
6.5	0.39	17	21	20	2.9	4	C=CC(=O)N1C[C@H](n2c(C#CC3CC3)c(C(=O)N[C@H](C)c3ccccc3)c3c(N)ncnc32)C[C@@H]1CC [Example 17, 7-((3R,5S)-1-acryloyl-5-ethylpyrrolidin-3-yl)-4-amino-6-(cyclopropylethynyl)-N—((R)-1-phenylethyl)-7H-pyrrolo[2,3-d]pyrimidine-5-carboxamide]	2.2
1.6	0.22	7.7	15	14	2.3	3.4	C=CC(=O)N1C[C@H](n2c(C#CC3CC3)c(C(=O)N[C@H](C)c3ccccc3)c3c(N)ncnc32)C[C@@H]1COC [Example 18, 7-((3R,5R)-1-acryloyl-5-(methoxymethyl)pyrrolidin-3-yl)-4-amino-6-(cyclopropylethynyl)-N—((R)-1-phenylethyl)-7H-pyrrolo[2,3-d]pyrimidine-5-carboxamide]	2.6
